Laboratory results published in ChEMBL document CHEMBL5465560, “Selectivity Literature for EUbOPEN Chemogenomic Library” (2024).

How the values were obtained:
Conditions in all cases: at 10 µM
[1] = test system: Proto-oncogene tyrosine-protein kinase receptor Ret (Homo sapiens), P07949 [M918T]; test: (§1) Selectivity interaction (KinomeScan (DiscoverX)) EUB0000595a RET
[2] = test system: Proto-oncogene tyrosine-protein kinase receptor Ret (Homo sapiens), P07949 [V804L]; test: as §1
[3] = target: Proto-oncogene tyrosine-protein kinase receptor Ret (Homo sapiens, UniProt P07949); test: as §1
Proto-oncogene tyrosine-protein kinase receptor Ret, sequence (P07949 whole entry): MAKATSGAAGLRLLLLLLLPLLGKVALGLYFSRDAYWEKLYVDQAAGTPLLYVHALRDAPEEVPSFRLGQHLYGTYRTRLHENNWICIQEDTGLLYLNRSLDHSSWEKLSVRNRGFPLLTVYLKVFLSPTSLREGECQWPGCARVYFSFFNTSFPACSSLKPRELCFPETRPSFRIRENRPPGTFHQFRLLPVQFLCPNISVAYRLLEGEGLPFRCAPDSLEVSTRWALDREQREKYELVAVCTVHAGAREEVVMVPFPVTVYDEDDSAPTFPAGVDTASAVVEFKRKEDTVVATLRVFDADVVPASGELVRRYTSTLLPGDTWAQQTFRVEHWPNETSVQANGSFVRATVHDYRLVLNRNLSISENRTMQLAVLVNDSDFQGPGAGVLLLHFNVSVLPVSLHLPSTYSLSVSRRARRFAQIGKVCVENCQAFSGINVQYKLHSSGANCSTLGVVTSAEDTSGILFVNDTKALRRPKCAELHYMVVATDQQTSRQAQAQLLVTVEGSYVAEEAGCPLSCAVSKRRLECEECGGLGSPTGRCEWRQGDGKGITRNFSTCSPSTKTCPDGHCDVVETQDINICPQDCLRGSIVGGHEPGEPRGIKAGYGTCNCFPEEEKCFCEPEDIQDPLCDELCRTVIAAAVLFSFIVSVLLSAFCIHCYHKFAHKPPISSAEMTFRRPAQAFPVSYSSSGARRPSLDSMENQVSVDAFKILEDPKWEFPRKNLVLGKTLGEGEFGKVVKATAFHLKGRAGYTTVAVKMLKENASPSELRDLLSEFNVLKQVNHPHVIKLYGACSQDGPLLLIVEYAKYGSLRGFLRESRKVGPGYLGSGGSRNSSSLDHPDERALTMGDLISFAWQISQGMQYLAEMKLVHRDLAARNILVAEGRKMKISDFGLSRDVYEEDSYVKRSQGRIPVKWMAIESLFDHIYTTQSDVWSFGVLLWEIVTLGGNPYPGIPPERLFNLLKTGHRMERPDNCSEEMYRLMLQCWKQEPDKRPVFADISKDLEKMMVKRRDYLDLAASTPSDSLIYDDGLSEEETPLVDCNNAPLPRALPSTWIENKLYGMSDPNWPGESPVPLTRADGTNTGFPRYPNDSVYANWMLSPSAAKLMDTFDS

[4] = target: T1, Serine/threonine-protein kinase D1 (Homo sapiens) (UniProt Q15139); test: Selectivity interaction (KinomeScan (DiscoverX)) EUB0000666a PRKD1
T1 sequence (whole entry): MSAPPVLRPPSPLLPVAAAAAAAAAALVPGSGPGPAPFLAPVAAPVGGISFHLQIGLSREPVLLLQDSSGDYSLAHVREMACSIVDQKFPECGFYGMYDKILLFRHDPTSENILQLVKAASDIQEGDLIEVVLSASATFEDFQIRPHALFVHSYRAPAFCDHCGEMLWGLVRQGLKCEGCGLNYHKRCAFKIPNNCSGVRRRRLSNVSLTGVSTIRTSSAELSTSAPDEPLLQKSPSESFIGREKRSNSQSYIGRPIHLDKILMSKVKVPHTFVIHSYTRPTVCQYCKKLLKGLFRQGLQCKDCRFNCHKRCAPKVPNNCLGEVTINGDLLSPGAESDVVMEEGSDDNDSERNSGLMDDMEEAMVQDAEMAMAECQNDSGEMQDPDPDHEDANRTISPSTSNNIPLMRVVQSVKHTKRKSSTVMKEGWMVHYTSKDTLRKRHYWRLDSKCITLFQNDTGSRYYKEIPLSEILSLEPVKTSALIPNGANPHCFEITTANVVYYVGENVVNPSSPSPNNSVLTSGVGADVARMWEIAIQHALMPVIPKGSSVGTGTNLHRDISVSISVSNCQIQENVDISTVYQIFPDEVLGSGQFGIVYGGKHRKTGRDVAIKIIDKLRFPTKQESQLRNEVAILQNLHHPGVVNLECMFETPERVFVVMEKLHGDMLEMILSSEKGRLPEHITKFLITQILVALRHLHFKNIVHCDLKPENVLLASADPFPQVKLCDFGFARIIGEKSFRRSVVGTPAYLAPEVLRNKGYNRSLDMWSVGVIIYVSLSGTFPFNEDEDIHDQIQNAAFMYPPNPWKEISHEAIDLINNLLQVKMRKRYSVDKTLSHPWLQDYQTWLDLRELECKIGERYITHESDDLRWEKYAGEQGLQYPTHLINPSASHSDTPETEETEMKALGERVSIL

[5] = target: Mitogen-activated protein kinase 6 (Homo sapiens) (UniProt Q16659)
Mitogen-activated protein kinase 6 (Homo sapiens), sequence (Q16659 whole entry): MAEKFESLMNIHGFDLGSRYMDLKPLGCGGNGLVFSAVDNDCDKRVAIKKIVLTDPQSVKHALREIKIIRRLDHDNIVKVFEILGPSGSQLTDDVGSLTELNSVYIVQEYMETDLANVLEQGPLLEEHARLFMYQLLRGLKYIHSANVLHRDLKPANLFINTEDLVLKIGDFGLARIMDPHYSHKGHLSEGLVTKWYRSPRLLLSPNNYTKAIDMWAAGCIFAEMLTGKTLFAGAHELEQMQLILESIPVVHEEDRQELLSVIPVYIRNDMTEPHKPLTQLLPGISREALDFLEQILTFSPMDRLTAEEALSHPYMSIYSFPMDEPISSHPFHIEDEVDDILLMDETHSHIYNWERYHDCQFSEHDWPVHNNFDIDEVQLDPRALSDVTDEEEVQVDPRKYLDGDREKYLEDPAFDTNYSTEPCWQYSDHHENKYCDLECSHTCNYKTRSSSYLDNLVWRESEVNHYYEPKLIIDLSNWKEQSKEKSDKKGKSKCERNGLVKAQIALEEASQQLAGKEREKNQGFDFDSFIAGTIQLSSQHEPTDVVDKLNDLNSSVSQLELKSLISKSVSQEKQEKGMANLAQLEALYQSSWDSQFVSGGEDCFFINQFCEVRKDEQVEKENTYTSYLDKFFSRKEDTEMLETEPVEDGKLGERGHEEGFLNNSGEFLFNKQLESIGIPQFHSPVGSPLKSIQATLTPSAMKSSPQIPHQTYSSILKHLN

[6] = target: T2, Serine/threonine-protein kinase 36 (Homo sapiens) (UniProt Q9NRP7)
T2 sequence (whole entry): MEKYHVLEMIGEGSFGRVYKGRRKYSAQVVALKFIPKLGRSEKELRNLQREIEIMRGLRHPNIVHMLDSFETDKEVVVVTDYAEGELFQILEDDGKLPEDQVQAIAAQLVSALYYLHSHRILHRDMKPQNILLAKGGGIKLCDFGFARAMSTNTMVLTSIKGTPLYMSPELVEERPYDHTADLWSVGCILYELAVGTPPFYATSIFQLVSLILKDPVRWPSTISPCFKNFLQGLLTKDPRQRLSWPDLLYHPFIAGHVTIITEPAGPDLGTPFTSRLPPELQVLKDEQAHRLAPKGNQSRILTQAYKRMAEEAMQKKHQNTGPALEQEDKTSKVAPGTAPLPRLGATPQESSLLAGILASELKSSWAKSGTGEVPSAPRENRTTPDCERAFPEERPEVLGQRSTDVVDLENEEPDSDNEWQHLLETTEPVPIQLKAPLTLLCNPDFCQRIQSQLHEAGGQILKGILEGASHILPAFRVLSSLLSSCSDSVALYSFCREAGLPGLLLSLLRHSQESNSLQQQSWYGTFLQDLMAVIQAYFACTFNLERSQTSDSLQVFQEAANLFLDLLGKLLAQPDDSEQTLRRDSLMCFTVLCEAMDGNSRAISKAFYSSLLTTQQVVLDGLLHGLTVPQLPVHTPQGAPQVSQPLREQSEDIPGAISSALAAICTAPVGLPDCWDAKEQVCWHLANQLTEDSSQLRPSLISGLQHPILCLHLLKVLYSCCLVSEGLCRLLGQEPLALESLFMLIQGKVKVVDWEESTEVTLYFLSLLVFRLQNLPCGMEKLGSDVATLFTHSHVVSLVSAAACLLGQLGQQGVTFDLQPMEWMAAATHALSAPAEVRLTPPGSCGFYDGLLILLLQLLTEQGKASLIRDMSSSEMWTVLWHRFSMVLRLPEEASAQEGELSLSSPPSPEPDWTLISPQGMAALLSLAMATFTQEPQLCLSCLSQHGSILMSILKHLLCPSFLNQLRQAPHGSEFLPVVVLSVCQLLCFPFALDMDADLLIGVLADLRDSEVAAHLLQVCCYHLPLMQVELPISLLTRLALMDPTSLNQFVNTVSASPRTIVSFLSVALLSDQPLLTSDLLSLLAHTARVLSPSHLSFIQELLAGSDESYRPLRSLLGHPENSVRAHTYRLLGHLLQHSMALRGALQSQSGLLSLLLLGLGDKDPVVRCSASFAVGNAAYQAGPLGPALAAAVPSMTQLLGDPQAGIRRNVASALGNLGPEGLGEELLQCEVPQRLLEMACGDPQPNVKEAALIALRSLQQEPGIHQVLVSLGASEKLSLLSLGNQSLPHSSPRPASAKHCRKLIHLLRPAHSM

Proto-oncogene tyrosine-protein kinase receptor Ret (Homo sapiens), P07949 [V804L], sequence (P07949 whole entry V804L): as the sequence (P07949 whole entry) above, with V804L counted along it
Proto-oncogene tyrosine-protein kinase receptor Ret (Homo sapiens), P07949 [M918T], sequence (P07949 whole entry M918T): as the sequence (P07949 whole entry) above, with M918T counted along it

Q: With `COCC(=O)NC/C=C/c1ccc2ncnc(Nc3ccc(Oc4ccc(C)nc4)c(C)c3)c2c1` [CP-724714] as the molecule, how does the % of control [1] read?
A: 77%

Q: What about the % of control [2] of the same molecule?
A: 100%

Q: What about the % of control [3] of the same molecule?
A: 87%

Q: For `O=C(NOC[C@H](O)CO)c1ccc(F)c(F)c1Nc1ccc(I)cc1F`, which % of control [4] is on record?
A: 100%

Q: With `Cc1cc([C@@H](C)Nc2ccccc2C(=O)O)c2nc(N3CCOCC3)cc(=O)n2c1` [AZD-6482] as the molecule, how does the % of control [5] read?
A: 100%

Q: With `CCN(CC)CCCCNc1ncc2cc(-c3cc(OC)cc(OC)c3)c(NC(=O)NC(C)(C)C)nc2n1` as the molecule, how does the % of control [6] read?
A: 100%
